“Also recorded” adds a separate entry of the source.
Columns and labels:
[1] = RalA inhibitor treatment of mice: body weight, tissue weight, blood glucose; format: in vivo
Excerpt: To test the effects of RalA inhibition in reducing body weight, tissue weight and blood glucose level in mice, mice were weighed before injecting with either RalA inhibitor, BQU57, or DMSO (vehicle). Post injection, mice were weighed every 2 days.

immortalized adipocytes = test: In vitro lipolysis (FFA and glycerol release) in immortalized adipocytes; format: cell-based, mice
Description: Primary preadipocytes from Rala^f/f mice were immortalized by retroviral transduction of pBabe-zeo-LT-ST (SV40) and selection by Zeocin^75. Single-cell clones were selected and tested for differentiation capacity. […] To generate Rala KO cells, immortalized Rala^f/f (WT) preadipocytes were transduced with lentiviral Cre with 8 μg/mL Polybrene for 12 hours, then cultured in DMEM/F12-FBS medium. Cre recombinase efficiency was tested in preadipocytes and adipocytes. Once 95-100% confluency was reached (day 0), differentiation was induced as described above. On the day of the experiment, cells were starved in DMEM/F12 medium for 3 hours before treatments.
Fully differentiated primary adipocytes in a 24-well plate were serum-starved in lipolysis medium (2% BSA-phenol-red-free DMEM) for 3 hours. For insulin treatment, 100 nM insulin was added to cells for 30 minutes starting at 2.5 hours of starvation. After starvation, the medium was replaced with 0.5 mL fresh lipolysis medium with vehicle, 1 μM CL-316,243 (CL), 100 nM insulin or in combination. The medium was collected 1 hour after incubation at 37° C. Released FFAs and free glycerol levels were measured using 100 μL medium with a NEFA kit (WAKO) and Free Glycerol Reagent (Sigma) according to the manufacturer's protocol.

[2] = system: primary and immortalized adipocytes; test: TMRM live-cell imaging of mitochondrial membrane potential in adipocytes; format: cell-based, mice; conditions: adipocytes treated with 1 μM CL-316,243 for indicated times
Excerpt: FIGS. 10A-10J. […] FIG. 10A: Calculation of individual OCR in differentiated primary adipocytes (n=8 biological samples). P=0.0008, P=0.0175, P=0.0042. FIG. 10B: Representative immunoblot of RalA and β-Tubulin in immortalized preadipocytes and differentiated adipocytes. (n=3 biological samples). FIG. 10C: Quantification of mean TMRM fluorescence intensity in primary adipocytes and immortalized adipocytes (n=3 independent cells). P<0.0001, P<0.0001. FIG. 10D: Time course TMRM intensity quantification in primary and immortalized adipocytes (n=4 biological samples). Adipocytes were treated with 1 μM CL-316,243 (CL) for indicated times. P=0.0015, P=0.0044 (left panel). P<0.0001, P=0.0154, P=0.0095 (right panel). FIGS. 10E and 10F: Quantification of NEFA (FIG. 10E) and free glycerol (FIG. 10F) released into medium from immortalized adipocytes (n=3 biological samples). Cells were treated with 1 μM CL, 100 nM insulin, or in combination prior to medium collection. P=0.0301, P=0.0051 (FIG. 10F). FIGS. 10G and 10H: Plasma levels of NEFA (FIG. 10G) and free glycerol (FIG. 10H) in CD-fed Rala^f/f and Rala^AKO mice (n=6). P=0.0027, P=0.0173 (FIG. 10H). Mice were i.p. injected with CL or vehicle prior to blood sampling. FIGS. 10I and 10J: Plasma levels of NEFA (FIG. 10I) and free glycerol (FIG. 10J) in CD-fed Rala^f/f (n=4) and Rala^AKO (n=5) mice. […]

[3] = system: primary differentiated adipocytes; test: Seahorse oxygen consumption rate in differentiated primary adipocytes; format: cell-based, mice; conditions: addition of etomoxir
Description: The cellular oxygen consumption rate (OCR) was measured using an eXF96 Extracellular Flux Analyzer and analyzed by Agilent Seahorse Wave Software (Seahorse Bioscience). Before performing the assay, 2,500 primary preadipocytes were seeded and differentiated in XF96 microplates. Once fully differentiated, the adipocyte culture medium was changed to assay medium containing 25 mM glucose, 1 mM pyruvate and 2 mM L-glutamine, and 0.5 mM carnitine without phenol red or sodium bicarbonate for 3 hours. Before taking measurements, cells were incubated in a CO2-free incubator for 15 minutes. Basal rates of respiration were measured in assay medium and followed with sequential injections of oligomycin (2 μM), FCCP (0.5 μM) and rotenone with antimycin A (each 0.5 μM). Oxygen consumption values were normalized to total protein content.

[4] = In vivo insulin-suppressed lipolysis; conditions: single injection of insulin, fasted CD-fed control and Rala AKO mice
Description: CD-fed mice were used for in vivo lipolysis. For CL-induced lipolysis, ad libitum-fed mice were i.p. injected with PBS or CL (1 mg/kg) for 60 minutes. Circulating FFAs and free glycerol levels were measured using 2 μL plasma with a NEFA kit (WAKO) and Free Glycerol Reagent (Sigma), respectively. For insulin-suppressed lipolysis, overnight-fasted mice were i.p. injected with insulin (0.5 U/kg) for 60 minutes. Circulating FFAs and free glycerol levels were measured at the indicated conditions.

Molecule: Cc1nn(C)c2c1C(c1ccc(C(F)(F)F)cc1)C(C#N)=C(N)O2 (centres unmarked) [BQU57]
- body weight ([1]; mice injected with BQU57 vs DMSO vehicle, weighed every 2 days, 23 days of treatment): significant weight loss; also recorded: reduced body weight
- blood glucose level ([1]; mice, BQU57 vs vehicle group): significant reduction in the blood glucose level
- subcutaneous WAT (sWAT) weight ([1]; mice, post treatment with BQU57): marked reduction of subcutaneous WAT (sWAT) weight

Molecule: C[C@H](Cc1ccc2c(c1)OC(C(=O)[O-])(C(=O)[O-])O2)NC[C@H](O)c1cccc(Cl)c1.[Na+].[Na+] [CL-316,243]
- FFA and glycerol release (immortalized adipocytes; 1 μM CL, KO and WT immortalized adipocytes): robustly stimulated FFA and glycerol release
- TMRM signal (mitochondrial membrane potential) [2]: TMRM signal declined quickly

Molecule: CCOC(=O)[C@@]1(CCCCCCOc2ccc(Cl)cc2)CO1 [etomoxir]
- difference in maximal respiration (OCR) between KO and control adipocytes [3]: blunted

Molecule: insulin: insulin used at 100 nM in cells or injected i.p. (human insulin, Sigma)
- suppression of CL-induced FFA release (immortalized adipocytes; 100 nM insulin with 1 μM CL, both WT and KO cells): approximately 50%
- plasma FFA levels [4]: reduced FFA levels
